Experimental findings from patent US20180148418A1, “AMIDO-SUBSTITUTED CYCLOHEXANE DERIVATIVES” (Bayer Pharma Aktiengesellschaft, priority 2015, published 2018) are described below.

pIC50: −log10 of the molar value.

Assay [1] relates to wildtype Wnt signaling cascade. The assay can be described thus: HEK293 TOP assay (Super TopFlash luciferase reporter, Wnt-3a stimulated). The class given is cell-based. The settings on record: Homo sapiens, HEK293, 16 h, HEK293 TOP reporter cells, Wnt3a at EC50, 16 hours. A digest of the protocol:
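Compound series (50 μM down to 15 nM, 3.16-fold) diluted from DMSO 50-fold into CAFTY buffer, pH 7.4, 2 mM Ca^2+, 0.01% BSA, applied to Wnt-3a-stimulated HEK293 TopFlash and FOP reporter lines in parallel. Cells seeded 10000/well 24 h before; luciferase signal measured.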

For assay [2], the target named is T1, TNKS2 (Homo sapiens, UniProt Q9H2K2).
T1 construct: purchased BPS Bioscience, San Diego, USA 80572 (TNKS2 Histone Ribosylation Assay Kit)
T1 sequence (Q9H2K2 1-1166): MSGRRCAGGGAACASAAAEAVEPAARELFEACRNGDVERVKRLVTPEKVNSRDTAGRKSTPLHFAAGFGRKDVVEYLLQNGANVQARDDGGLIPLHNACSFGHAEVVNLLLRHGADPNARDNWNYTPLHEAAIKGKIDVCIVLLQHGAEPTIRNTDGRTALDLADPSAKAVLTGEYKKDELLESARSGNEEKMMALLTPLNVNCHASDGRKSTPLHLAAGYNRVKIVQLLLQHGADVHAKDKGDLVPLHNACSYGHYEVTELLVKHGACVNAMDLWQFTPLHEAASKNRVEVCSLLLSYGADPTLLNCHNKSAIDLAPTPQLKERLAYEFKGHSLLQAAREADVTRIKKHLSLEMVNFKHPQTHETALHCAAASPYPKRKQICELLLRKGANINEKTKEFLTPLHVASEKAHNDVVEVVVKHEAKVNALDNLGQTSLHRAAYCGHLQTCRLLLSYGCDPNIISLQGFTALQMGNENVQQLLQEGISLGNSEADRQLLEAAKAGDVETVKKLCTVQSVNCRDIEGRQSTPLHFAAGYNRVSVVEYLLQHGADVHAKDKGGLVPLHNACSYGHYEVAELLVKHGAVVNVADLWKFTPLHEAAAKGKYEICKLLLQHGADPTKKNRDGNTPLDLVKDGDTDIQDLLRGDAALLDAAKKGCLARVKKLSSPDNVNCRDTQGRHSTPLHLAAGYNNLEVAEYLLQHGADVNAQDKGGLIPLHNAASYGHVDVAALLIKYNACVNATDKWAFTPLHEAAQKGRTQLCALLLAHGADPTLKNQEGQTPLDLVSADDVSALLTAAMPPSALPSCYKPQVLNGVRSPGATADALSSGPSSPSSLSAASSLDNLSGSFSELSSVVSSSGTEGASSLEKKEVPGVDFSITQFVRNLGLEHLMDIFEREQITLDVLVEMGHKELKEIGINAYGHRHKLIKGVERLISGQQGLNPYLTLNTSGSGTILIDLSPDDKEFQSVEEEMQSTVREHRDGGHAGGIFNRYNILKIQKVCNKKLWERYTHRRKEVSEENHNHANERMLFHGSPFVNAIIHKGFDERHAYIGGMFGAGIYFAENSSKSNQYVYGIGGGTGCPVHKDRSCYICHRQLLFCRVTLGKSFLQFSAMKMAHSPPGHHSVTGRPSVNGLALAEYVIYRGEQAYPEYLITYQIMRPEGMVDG
The assay can be described thus: TNKS2 Assay B (auto-parsylation, [3H]-NAD+ SPA). It counts as biochemical. The settings on record: 6 nM TNKS2, auto-parsylation, over night at room temperature.

In assay [3] the test system is HEK293 cells cotransfected with the FOP control vector. Briefly: HEK293 FOP assay (control reporter with non-functional TCF elements). The class given is cell-based. The conditions noted are these: Homo sapiens, 16 hours. The essentials: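 Compound series from 50 μM down to 15 nM, prediluted in DMSO then 50-fold into CAFTY buffer (pH 7.4, 2 mM Ca2+, 0.01% BSA), tested alongside TOP cells on a Geneticin-selected HEK293 FOP line whose TCF elements are replaced by a random sequence; recombinant human Wnt-3a applied at 2500-5 ng/ml.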

As to `Cc1cc(C)n2ncc(C(=O)NC3CCC(C(=O)Nc4ccc(F)cc4Cl)CC3C)c2n1` (stereo not drawn) [Example 42, N-{4-[(2-chloro-4-fluorophenyl)carbamoyl]-2-methylcyclohexyl}-5,7-dimethylpyrazolo[1,5-a]pyrimidine-3-carboxamide], the pIC50 was 6.92 in assay [1], 6.92 in assay [2] and ≤ 4.30 in assay [3].
With `O=C(N[C@H]1CC[C@H](C(=O)Nc2ccc(F)cc2Cl)CC1)c1cnn2cccnc12` [Example 43, N-{trans-4-[(2-chloro-4-fluorophenyl)carbamoyl]cyclohexyl}pyrazolo[1,5-a]pyrimidine-3-carboxamide], the pIC50 in assay [1] was 6.89; in assay [2] it was 7.13; in assay [3], ≤ 4.30.
In the same order, the values of `Cc1cc(C)n2ncc(C(=O)N[C@H]3CC[C@H](C(=O)Nc4ccc(F)cc4Cl)CC3)c2n1` [Example 44, N-{trans-4-[(2-chloro-4-fluorophenyl)carbamoyl]cyclohexyl}-5,7-dimethylpyrazolo[1,5-a]pyrimidine-3-carboxamide] are 7.09, 6.82 and ≤ 4.30.
For `O=C(N[C@H]1CC[C@H](C(=O)Nc2ccc(F)cc2Cl)CC1)c1cnc2cccnn12` [Example 45, N-{trans-4-[(2-chloro-4-fluorophenyl)carbamoyl]cyclohexyl}imidazo[1,2-b]pyridazine-3-carboxamide], in that order: 6.80, 6.89 and ≤ 4.30.
For `CC(=O)c1cnc2c(C(=O)N[C@H]3CC[C@H](C(=O)Nc4ccc(F)cc4Cl)CC3)cnn2c1C` [Example 46, 6-acetyl-N-{trans-4-[(2-chloro-4-fluorophenyl)carbamoyl]cyclohexyl}-7-methylpyrazolo[1,5-a]pyrimidine-3-carboxamide], in that order: 7.01, 7.60 and ≤ 4.30.
In the case of `O=C(N[C@H]1CC[C@H](C(=O)Nc2ccc(F)cc2Cl)CC1)c1cnc2ccc(Cl)nn12` [Example 47, 6-chloro-N-{trans-4-[(2-chloro-4-fluorophenyl)carbamoyl]cyclohexyl}imidazo[1,2-b]pyridazine-3-carboxamide], the values for the pIC50 in assay [1], in assay [2] and in assay [3] were 6.41, 6.38 and 4.80, respectively.
As to `O=C(N[C@H]1CC[C@H](C(=O)Nc2ccc(F)cc2Cl)CC1)c1cnc2ccc(N3CCOCC3)nn12` [Example 48, N-{trans-4-[(2-chloro-4-fluorophenyl)carbamoyl]cyclohexyl}-6-(morpholin-4-yl)imidazo[1,2-b]pyridazine-3-carboxamide], the negative logarithm of the IC50 (pIC50) was 6.39 in assay [1], 6.51 in assay [2] and 4.85 in assay [3].
For the compound `CN1CCN(c2ccc3ncc(C(=O)N[C@H]4CC[C@H](C(=O)Nc5ccc(F)cc5Cl)CC4)n3n2)CC1` [Example 49, N-{trans-4-[(2-chloro-4-fluorophenyl)carbamoyl]cyclohexyl}-6-(4-methylpiperazin-1-yl)imidazo[1,2-b]pyridazine-3-carboxamide], the pIC50 in assay [1] was 6.17; in assay [2], 6.89; in assay [3] it was 4.49.
As for `COc1ccc2ncc(C(=O)N[C@H]3CC[C@H](C(=O)Nc4ccc(F)cc4Cl)CC3)n2n1` [Example 50, N-{trans-4-[(2-chloro-4-fluorophenyl)carbamoyl]cyclohexyl}-6-methoxyimidazo[1,2-b]pyridazine-3-carboxamide], the pIC50 in assay [1] is 6.46; in assay [2] it was 6.77; in assay [3], ≤ 4.30.
In the case of `O=C(N[C@H]1CC[C@H](C(=O)Nc2ccc(F)cc2Cl)CC1)c1cnc2ccc(N3CCCC3)nn12` [Example 51, N-{trans-4-[(2-chloro-4-fluorophenyl)carbamoyl]cyclohexyl}-6-(pyrrolidin-1-yl)imidazo[1,2-b]pyridazine-3-carboxamide], the negative logarithm of the IC50 (pIC50) in assay [1] was 6.54; in assay [2], 7.51; in assay [3] it was ≤ 4.30.
With `CN(C)c1ccc2ncc(C(=O)N[C@H]3CC[C@H](C(=O)Nc4ccc(F)cc4Cl)CC3)n2n1` [Example 52, N-{trans-4-[(2-chloro-4-fluorophenyl)carbamoyl]cyclohexyl}-6-(dimethylamino)imidazo[1,2-b]pyridazine-3-carboxamide], the pIC50 was 6.82 in assay [1], 7.96 in assay [2] and 4.40 in assay [3].
In the same order, the values of `CNc1ccc2ncc(C(=O)N[C@H]3CC[C@H](C(=O)Nc4ccc(F)cc4Cl)CC3)n2n1` [Example 53, N-{trans-4-[(2-chloro-4-fluorophenyl)carbamoyl]cyclohexyl}-6-(methylamino)imidazo[1,2-b]pyridazine-3-carboxamide] are 6.40, 7.33 and ≤ 4.30.
For `Cc1c(C(C)O)cnc2c(C(=O)N[C@H]3CC[C@H](C(=O)Nc4ccc(F)cc4Cl)CC3)cnn12` (stereo partly drawn) [Example 58, N-{trans-4-[(2-chloro-4-fluorophenyl)carbamoyl]cyclohexyl}-6-(1-hydroxyethyl)-7-methylpyrazolo[1,5-a]pyrimidine-3-carboxamide], in that order: 5.96, 6.15 and ≤ 4.30.
For `Nc1nn2cccnc2c1C(=O)N[C@H]1CC[C@H](C(=O)Nc2ccc(F)cc2Cl)CC1` [Example 59, 2-amino-N-{trans-4-[(2-chloro-4-fluorophenyl)carbamoyl]cyclohexyl}pyrazolo[1,5-a]pyrimidine-3-carboxamide], the pIC50 is 5.89 in assay [1], 6.30 in assay [2] and ≤ 4.30 in assay [3].
With `Cc1cc(C(C)(C)C)n2ncc(C(=O)N[C@H]3CC[C@H](C(=O)Nc4ccc(F)cc4Cl)CC3)c2n1` [Example 60, 7-tert-butyl-N-{trans-4-[(2-chloro-4-fluorophenyl)carbamoyl]cyclohexyl}-5-methylpyrazolo[1,5-a]pyrimidine-3-carboxamide], the pIC50 is 6.21 in assay [1], 5.66 in assay [2] and 4.62 in assay [3].
Turning to `Cc1cnc2c(C(=O)N[C@H]3CC[C@H](C(=O)Nc4ccc(F)cc4Cl)CC3)cnn2c1` [Example 61, N-{trans-4-[(2-chloro-4-fluorophenyl)carbamoyl]cyclohexyl}-6-methylpyrazolo[1,5-a]pyrimidine-3-carboxamide], the pIC50 in assay [1] was 7.68; in assay [2] it was 7.47; in assay [3] it was ≤ 4.30.
For `Cc1cc(C2CC2)nc2c(C(=O)N[C@H]3CC[C@H](C(=O)Nc4ccc(F)cc4Cl)CC3)cnn12` [Example 62, N-{trans-4-[(2-chloro-4-fluorophenyl)carbamoyl]cyclohexyl}-5-cyclopropyl-7-methylpyrazolo[1,5-a]pyrimidine-3-carboxamide], in that order: 4.92, 5.70 and ≤ 4.30.
Take `CNC(=O)c1nc[nH]c1C(=O)N[C@H]1CC[C@H](C(=O)Nc2cc(C)c(F)cc2Cl)CC1` [Example 63, N^5-{trans-4-[(2-chloro-4-fluoro-5-methylphenyl)carbamoyl]cyclohexyl}-N^4-methyl-1H-imidazole-4,5-dicarboxamide]: the negative logarithm of the IC50 (pIC50) in assay [1] was 7.27; in assay [2], 7.51; in assay [3], ≤ 4.30.

What is called pIC50 is −log10 of the IC50, conventionally taken in molar units.
